Test system: N27 rat dopaminergic neural cells
Assay: MTT assay in N27 rat dopaminergic neural cells: inhibition of RSL3-induced cell death (ferroptosis)
Format: cell-based
Conditions: Rattus norvegicus, ferroptosis induced by 0.5 μM RSL3, 24 hours, viability by MTT
Experimental: MTT Assay in N27 Rat Dopaminergic Neural Cells
N27 rat dopaminergic neural cells (Millipore, SCC048) were cultured in RPMI-1640 media (Wisent, 350-000) supplemented with 1×GlutaMAX (Gibco, 35050-061), 10% FBS (embryonic stem cell qualified; Wisent, 920-040), and 1× Penicillin-Streptomycin (Wisent, 450-201). Cells were grown in humidified tissue culture incubator at 37° C. with 5% CO2, for up to 10 passages. To evaluate the ability of test compounds to inhibit RSL3-induced cell death, N27 cells were seeded in clear 96-well tissue culture plates (Sarstedt, 83.3924) at a density of 15,000 cells/well. On the next day, the medium was changed to fresh complete RPMI-1640. Eight-point dilution series of test compounds were added to the cells. Then, ferroptosis was induced by addition of 0.5 μM RSL3 (vehicle-treated cells served as control). Ferrostatin-1 (Fer-1) was included in each assay as control inhibitor of ferroptosis. Plates were incubated for 24 hours at 37° C. in a tissue culture incubator, then cell viability was determined by MTT assay. Briefly, Thiazolyl Blue Tetrazolium Bromide [3-(4,5-dimethylthiazol-2-yl)-2,5-diphenyltetrazolium bromide or “MTT” ] (Sigma) stock solution (5 mg/mL in PBS, sterilized by filtration) was diluted 1:1 with complete growth medium, and added on the cells to a final concentration of 0.5 mg/mL. Cells were incubated with MTT for 4 hours at 37° C., protected from light, in a humidified, 5% CO2 atmosphere. Medium was then completely removed from the wells by gentle aspiration and converted MTT formazan crystals were dissolved in 150 μL of DMSO. Absorbance of converted dye was measured at 595 nm with background subtraction at 690 nm using the BioTek Cytation5 Microplate Reader. Blank reading (absorbance from wells containing media and vehicle only, no cells) was removed from all sample wells. Viability was calculated as a percentage of control cells (vehicle-treated cells were set as 100% viability). Dose-response curves were drawn and IC50 values were calculated using GraphPad Prism software, version 7.

CCC(C)Nc1ccc(-c2ccc(C)cc2)nc1NC1CCCC1 (stereo not drawn) [Compound H-61, N^2-cyclopentyl-6-(p-tolyl)-N^3-sec-butyl-pyridine-2,3-diamine]
IC50 (N27, 24 h): 7 nM

CC1(Nc2nc(-c3cccnc3)ccc2NC2CCOC2)CCOC1 [Compound L-42, N^2-(3-methyltetrahydrofuran-3-yl)-6-(3-pyridyl)-N^3-tetrahydrofuran-3-yl-pyridine-2,3-diamine]
IC50 (N27, 24 h): 285 nM

CCOC(=O)c1cc2c(c(NC3CCCC3)c1)NC(=O)CC2 [Compound B-148]
IC50 (N27, 24 h): 1670 nM

CCC(C)Nc1ccc(-c2ccncc2)nc1NC1CCCC1 (stereo not drawn) [Compound H-76, N^2-cyclopentyl-6-(4-pyridyl)-N^3-sec-butyl-pyridine-2,3-diamine]
IC50 (N27, 24 h): 6 nM

O=C(c1ccccc1)c1nc2c(c(NC3CCCC3)n1)NCCC2 [Compound A-16, [4-(cyclopentylamino)-5,6,7,8-tetrahydropyrido[3,2-d]pyrimidin-2-yl]-phenyl-methanone]
IC50 (N27, 24 h): 285 nM

CCCCC(=O)c1cc2c(c(-n3ccnc3)c1)NCCC2 [Compound B-006, 1-(8-imidazol-1-yl-1,2,3,4-tetrahydroquinolin-6-yl)pentan-1-one]
IC50 (N27, 24 h): > 3000 nM

CCCCC(=O)c1nc2c(c(N3CCCC3)n1)NCCC2 [Compound A-18, 1-(4-pyrrolidin-1-yl-5,6,7,8-tetrahydropyrido[3,2-d]pyrimidin-2-yl)pentan-1-one]
IC50 (N27, 24 h): 217 nM

CCCCC(O)c1cc2c(c(NC(C)(C)C)n1)NCC(C(F)(F)F)C2 (stereo not drawn) [Compound R-812, 1-[8-(tert-butylamino)-3-(trifluoromethyl)-1,2,3,4-tetrahydro-1,7-naphthyridin-6-yl]pentan-1-ol]
IC50 (N27, 24 h): 40 nM

CCCCC(=O)c1cc2c(c(N3CCCC3=O)c1)NCCC2 [Compound Q-979, 1-(6-pentanoyl-1,2,3,4-tetrahydroquinolin-8-yl)pyrrolidin-2-one]
IC50 (N27, 24 h): 1150 nM

CCOC(=O)c1cc2c(c(C(=O)C(F)(F)F)c1)NC(C)(C)C=C2 [Compound B-101, Ethyl 2,2-dimethyl-8-(2,2,2-trifluoroacetyl)-1,2-dihydroquinoline-6-carboxylate]
IC50 (N27, 24 h): > 3000 nM

CCCC(=O)c1ccc(N)c(NC2CC(F)(F)C2)n1 [Compound P-46, 1-[5-amino-6-[(3,3-difluorocyclobutyl)amino]-2-pyridyl]butan-1-one]
IC50 (N27, 24 h): 498 nM

CCCCCc1nc(NC2CCOC2)c2c(n1)OCCN2 (stereo not drawn) [Compound B-604, 2-pentyl-N-tetrahydrofuran-3-yl-6,7-dihydro-5H-pyrimido[4,5-b][1,4]oxazin-4-amine]
IC50 (N27, 24 h): 388 nM

CCCCCc1nc(NC2CCCC2)c2c(n1)S(=O)(=O)CCN2 [Compound B-602, N-cyclopentyl-8,8-dioxo-2-pentyl-6,7-dihydro-5H-pyrimido[4,5-b][1,4]thiazin-4-amine]
IC50 (N27, 24 h): ≥ 3000 nM

CCC(C)Nc1ccc(-c2ccc(OC)cc2)nc1NC1CCCC1 (stereo not drawn) [Compound H-86, N^2-cyclopentyl-6-(4-methoxyphenyl)-N^3-sec-butyl-pyridine-2,3-diamine]
IC50 (N27, 24 h): 8 nM

CCCCNc1nc2c(c(NC3CCCC3)n1)NCCC2 [Compound B-433, N2-Butyl-N4-cyclopentyl-5,6,7,8-tetrahydropyrido[3,2-d]pyrimidine-2,4-diamine]
IC50 (N27, 24 h): 726 nM

CCOC(=O)c1cc(N)c2c(c1)CCC(C)(C)N2 [Compound B-256]
IC50 (N27, 24 h): 3820 nM

CCCCCc1cc2c(c(Nc3ccccn3)c1)NCCC2 [Compound B-308]
IC50 (N27, 24 h): 18 nM

CCC/C=C/c1nc(NC2CCOC2)c2c(n1)OCC(=O)N2 (stereo not drawn) [Compound B-603, 4-[(oxolan-3-yl)amino]-2-[(1E)-pent-1-en-1-yl]-5H,6H,7H-pyrimido[4,5-b][1,4]oxazin-6-one]
IC50 (N27, 24 h): > 3000 nM

CCC/C=C/c1nc2c(c(NC3CCCC3)n1)NCCC2 [Compound B-388, N-cyclopentyl-2-[(E)-pent-1-enyl]-5,6,7,8-tetrahydropyrido [3,2-d]pyrimidin-4-amine]
IC50 (N27, 24 h): 40 nM

CCCCC(=O)c1cc(N)c2c(c1)CCCN2S(=O)(=O)CC(C)C [Compound B-060]
IC50 (N27, 24 h): 4020 nM

CCC(C)Nc1cnc(-c2ccncc2)nc1NC1CCCC1 (stereo not drawn) [Compound F-88, N^4-cyclopentyl-2-(4-pyridyl)-N^5-sec-butyl-pyrimidine-4,5-diamine]
IC50 (N27, 24 h): 106 nM

c1cncc(-c2ccc(NC3COC3)c(NC3CCCC3)n2)c1 [Compound H-75, N^2-cyclopentyl-N^3-(oxetan-3-yl)-6-(3-pyridyl)pyridine-2,3-diamine]
IC50 (N27, 24 h): 44 nM

CCC(C)Nc1ccc(-c2cncnc2)nc1NC1CCCC1 (stereo not drawn) [Compound H-80, N^2-cyclopentyl-6-pyrimidin-5-yl-N^3-sec-butyl-pyridine-2,3-diamine]
IC50 (N27, 24 h): 7 nM

CCCCC(O)c1cc2c(c(Nc3ccccn3)c1)NCCC2 (stereo not drawn) [Compound B-250, 1-[8-(2-pyridylamino)-1,2,3,4-tetrahydroquinolin-6-yl]pentan-1-ol]
IC50 (N27, 24 h): 139 nM

CCCCCc1nc2c(c(NC3CCCC3)n1)NC(C)(C)CC2 [Compound B-917, N-cyclopentyl-6,6-dimethyl-2-pentyl-5H,6H,7H,8H-pyrido[3,2-d]pyrimidin-4-amine]
IC50 (N27, 24 h): > 3000 nM

CCCCC(=O)c1nc(NC2CCCC2)c2c(n1)OCCN2 [Compound B-763, 1-[4-(cyclopentylamino)-5H,6H,7H-pyrimido[4,5-b][1,4]oxazin-2-yl]pentan-1-one]
IC50 (N27, 24 h): 391 nM

CCCCC(=O)c1nc2c(c(NC3CCCC3)n1)NCCC2 [Compound C-82, 1-[4-(cyclopentylamino)-5,6,7,8-tetrahydropyrido[3,2-d]pyrimidin-2-yl]pentan-1-one]
IC50 (N27, 24 h): 84 nM

CCCCC(=O)c1nc2c(c(NC(C)(C)C)n1)NCCC2 [Compound A-06, 1-[4-(tert-butylamino)-5,6,7,8-tetrahydropyrido[3,2-d]pyrimidin-2-yl]pentan-1-one]
IC50 (N27, 24 h): 76 nM

CC1(Nc2nc(-c3ccncc3)nc3c2NCCC3)CCOC1 (stereo not drawn) [Compound P-71, N-(3-methyltetrahydrofuran-3-yl)-2-(4-pyridyl)-5,6,7,8-tetrahydropyrido[3,2-d]pyrimidin-4-amine]
IC50 (N27, 24 h): 463 nM

c1ccc(-c2cn(-c3nc4c(c(NC5CCCC5)n3)NCCC4)nn2)cc1 [Compound A-31, N-cyclopentyl-2-(4-phenyltriazol-1-yl)-5,6,7,8-tetrahydropyrido[3,2-d]pyrimidin-4-amine]
IC50 (N27, 24 h): 21 nM

CCOC(=O)c1ccc(NC2CCCCC2)c(N)n1 [Compound B-626, FER-1]
IC50 (N27, 24 h): 108 nM

c1cc(-c2ccc(NC3COC3)c(NC3CCCC3)n2)ccn1 [Compound H-77, N^2-cyclopentyl-N^3-(oxetan-3-yl)-6-(4-pyridyl)pyridine-2,3-diamine]
IC50 (N27, 24 h): 13 nM

c1cc(-c2nc3c(c(NC4CCCC4)n2)NCCC3)ccn1 [Compound A-34, N-cyclopentyl-2-(4-pyridyl)-5,6,7,8-tetrahydropyrido[3,2-d]pyrimidin-4-amine]
IC50 (N27, 24 h): 57 nM

Cc1ccc(-c2ccc(NC3COC3)c(NC3CCCC3)n2)cc1 [Compound H-81, N^2-cyclopentyl-N^3-(oxetan-3-yl)-6-(p-tolyl)pyridine-2,3-diamine]
IC50 (N27, 24 h): 5 nM

CCC(C)Nc1ccc(-c2cccnc2)nc1NC1CCCC1 (stereo not drawn) [Compound H-74, N^2-cyclopentyl-6-(3-pyridyl)-N^3-sec-butyl-pyridine-2,3-diamine]
IC50 (N27, 24 h): 5 nM

CCCCCc1nc(NC2CCCC2)c2c(n1)OCCN2 [Compound B-711, N-cyclopentyl-2-pentyl-5H,6H,7H-pyrimido[4,5-b][1,4]oxazin-4-amine]
IC50: 41 nM

Cc1ccc(-c2ccc(NC(C)(C)C)c(NC3CCCC3)n2)cc1 [Compound A-98, N^3-tert-butyl-N^2-cyclopentyl-6-(p-tolyl)pyridine-2,3-diamine]
IC50 (N27, 24 h): 7 nM

CC1=Nc2cc(C#N)ccc2NC1(C)C [Compound Q-912, 2,2,3-trimethyl-1H-quinoxaline-6-carbonitrile]
IC50 (N27, 24 h): > 3000 nM

CC(=O)c1nc2c(c(NC3CCCC3)n1)NCCC2 [Compound C-92, 1-[4-(cyclopentylamino)-5,6,7,8-tetrahydropyrido[3,2-d]pyrimidin-2-yl]ethanone]
IC50 (N27, 24 h): 2070 nM

CC(C)=Cc1nc(C)nc(NC2CCCC2)c1N [Compound F-99, N^4-cyclopentyl-2-methyl-6-(2-methylprop-1-enyl)pyrimidine-4,5-diamine]
IC50 (N27, 24 h): > 625 nM

CCCCC(=O)c1cc2c(c(N(S(=O)(=O)CC(C)C)S(=O)(=O)CC(C)C)c1)NCCC2 [Compound B-248, N-isobutylsulfonyl-2-methyl-N-(6-pentanoyl-1,2,3,4-tetrahydroquinolin-8-yl)propane-1-sulfonamide]
IC50 (N27, 24 h): > 3000 nM

CC1(Nc2nc(-c3ccc(F)cc3)ccc2NC2CCOCC2)CCOC1 (stereo not drawn) [Compound N-53, 6-(4-fluorophenyl)-N^2-(3-methyltetrahydrofuran-3-yl)-N^3-tetrahydropyran-4-yl-pyridine-2,3-diamine]
IC50 (N27, 24 h): 1 nM
